Test results as given in patent publication US12629394B2, “Atlas of Choroid Plexus cell types and therapeutic and diagnostic uses thereof” (The Broad Institute, Inc., priority 2019, dated 2026).
“Also recorded” adds a separate entry of the source.

Assays:
[1] = tested on: human iPSC cortical neurons; assay: MTX exposure of cultured human cortical neurons (iPSCs): oxidative stress and damage; format: cell-based
Procedure: (§1) AAV2/5-SOD3 or control AAV2/5-GFP was injected into embryonic (E) 13.5 mouse lateral ventricles, and offspring were raised to 4-6 weeks of age. Applicants quantified choroid plexus-SOD3 expression (qRT-PCR), CSF-SOD protein levels (immunoblotting), and CSF-anti-oxidant capacity (ELISA). In parallel, Applicants tested if Methotrexate (MTX) exposure induced signatures of oxidative damage in cultured human cortical neurons (iPSCs), in patient CSF, and in vivo rodent brain. To test if supplemental choroid plexus-SOD3 protects the brain from acute oxidative stress, intravenous MTX was administered to mice previously transduced with AAV2/5-SOD3 or control AAV2/5-GFP, and analyzed cortex, hippocampus, and corpus callosum for markers of oxidative damage 48 hours later.
(§2) Optimized assays for evaluating redox homeostasis and oxidative damage to cells, lipids, and DNA and found chemotherapy (MTX)-induced oxidative damage in human neurons in vitro and in rodent brain in vivo, and rodent ChP in vitro and in vivo was performed (FIG. 4; data not shown).

choroid plexus, CSF = assay: Intravenous MTX in rats: ChP and CSF antioxidants; format: in vivo, rat
[2] = tested on: CSF-SOD, CSF antioxidant capacity; assay: Patient CSF after MTX: SOD expression and antioxidant capacity; format: in vivo, human
Procedure: as §1, §2

[3] = tested on: choroid plexus, CSF, brain; assay: Intravenous MTX in mice: ChP and CSF antioxidants, oxidative damage; format: in vivo, mouse
Procedure: as §1

[4] = tested on: CSF-SOD, CSF antioxidant capacity; conditions: despite thiol supplementation (e.g. Leucovorin); cited from earlier work
choroid plexus in vitro = assay: In vitro incubation of choroid plexus with MTX: ROS, mitochondria, SOD; format: cell-based, rodent
Procedure: as §2

[5] = mouse, MTX 4 mg/kg i.v., evaluation at 48 hours

SMILES: CN(Cc1cnc2nc(N)nc(N)c2n1)c1ccc(C(=O)N[C@@H](CCC(=O)O)C(=O)O)cc1 [MTX, Methotrexate]
- oxidative stress in human iPSC cortical neurons ([1]; MTX 10 uM): triggers oxidative stress
- oxidative stress / markers of oxidative damage in cultured human neurons ([1]; human iPSC-derived neurons): induces oxidative stress; also recorded: induced markers of oxidative damage
- antioxidant availability in CSF (choroid plexus, CSF): reduced antioxidant availability in CSF
- choroid plexus anti-oxidant gene transcription (choroid plexus, CSF): decreased choroid plexus anti-oxidant gene transcription
- CSF-SOD expression levels after vs. before treatment ([2]; Primary CNS lymphoma patient, high dose MTX, sample 1B vs. pre-treatment 1A): reduced CSF-SOD expression levels
- antioxidant capacity of human CSF ([2]; human CSF): diminishes antioxidant capacity
- markers of oxidative damage in patient CSF ([2]; patient CSF): induced markers of oxidative damage
- markers of oxidative damage in rodent brain ([3]; in vivo rodent brain): induced markers of oxidative damage
- antioxidant availability in CSF ([3]; mice, intravenous MTX): reduced antioxidant availability in CSF
- choroid plexus anti-oxidant gene transcription ([3]; mice, intravenous MTX): decreased choroid plexus anti-oxidant gene transcription
- SOD expression in vivo (CSF Sod3, SOD activity) [3, 5]: decreases SOD expression
- oxidative damage in vivo (8-OHdG) [3, 5]: increases oxidative damage
- anti-oxidant capacity of CSF from patients receiving chemotherapeutics [4]: reduced anti-oxidant capacity
- SOD expression and secretion (choroid plexus in vitro; in vitro): decreases SOD expression and secretion
- mitochondrial respiration in choroid plexus (choroid plexus in vitro; in vitro): impairs mitochondrial respiration
- ROS production in ChP (choroid plexus in vitro; in vitro incubation): inducing ROS production
- mitochondrial membrane potential in ChP (choroid plexus in vitro; in vitro incubation): alters mitochondrial membrane potential
